Test results: patent publication US7585885B2, “Pyrrolidine derivatives useful as BACE inhibitors” (Eli Lilly and Company, priority 2004, dated 2009)
Where a name gives a salt, the structure may show the parent alone.

Columns and labels:
[1] = target: T1, human BACE1 (1-460):Fc (Homo sapiens, UniProt P56817); test: BACE1 mcaFRET Assay; format: biochemical; settings: FRET substrate 15 micromolar, pH 4.6, room temperature 16 to 24 hours
T1 construct: made in house; host or cells: HEK293 (transient transfection, purified from conditioned media on Protein A-agarose)
Experimental: (§1) For in vitro enzymatic and cellular assays, test compounds are prepared in DMSO to make up a 10 millimolar stock solution. The stock solution is serially diluted (in a 1:3, 1:2.5, 1:2, or 1:1 dilution series) in DMSO to obtain a final compound concentration of 10 millimolar to 1 micromolar at the first highest concentration of a ten-point dilution curve in a 96-well round-bottom plate right before conducting the in vitro enzymatic and whole assays.
Serial dilutions of test compounds are prepared as described above. Two microliter of each dilution is added to each well on row A to H of a corresponding low protein binding black plate to which 50 microliter of 50 millimolar ammonium acetate, pH 4.6, 1 mM Triton X-100, 1 mg/ml Bovine Serum Albumin, and 15 micromolar of FRET substrate (sequence: (MCA)-S-E-V-N-L-D-A-E-F-R-K(Dnp)-R-R-R-R-NH2) for BACE1 activity are pre-added. The content is mixed well on a plate shaker for 10 min. Fifty microliter of two hundred picomolar human BACE1 (1-460):Fc (See: Vasser, et al., Science, 286, 735-741 (1999)) in the same reaction buffer described above is added to the plate containing substrate and test compounds to initiate the reaction. The relative fluorescence unit (RFU) of the mixture at time 0 is recorded at excitation wavelength 330 nm and emission wavelength 400 nm, after brief mixing on a plate shaker. The reaction plate is covered with aluminum foil and kept in a dark humidified oven at room temperature for 16 to 24 hours. The RFU at the end of incubation is recorded with the same excitation and emission setting. The difference of the RFU at time 0 and the end of incubation represents the activity of BACE1 under the compound treatment. The 10-point inhibition curve was plotted and fitted with the four-parameter logistic equation to obtain the EC50 and IC50 values. (See: Sinha, et al., Nature, 402, 537-540 (2000)). […] Data for selected compounds of the invention tested in this assay are contained in the following table.
Both human (accession number: AF190725) and murine (accession number: NM_011792) BACE1 were cloned from total brain cDNA by […]. The nucleotide sequences corresponding to amino acid sequences #1 to 460 were inserted into the cDNA encoding human IgG1 (Fc) polypeptide (Vassar et al. 1999). This fusion protein of BACE1 (1-460) and human Fc, named huBACE1:Fc, was constructed into the pJB02 vector. Human BACE1(1-460):Fc (huBACE1:Fc) and murine BACE1(1-460):Fc (muBACE1:Fc) were transiently expressed in HEK293 cells. 250 μg cDNA of each construct was mixed with Fugene 6 and added to 1 liter HEK293 cells. Four days after the transfection, conditioned media were harvested for purification.
Conditioned media of HEK293 cell transiently transfected with huBACE1:Fc or muBACE1:Fc cDNA were collected. Cell debris was removed by filtering the conditioned media through 0.22 μm sterile filter. 5 ml Protein A-agarose (bed volume) was added to 4 liter conditioned media. This mixture was gently stirred overnight at 4° C. The Protein A-agarose resin was collected and packed into a low-pressure chromatography column. The column washed with 20× bed volumes of PBS at flow rate 20 ml per hour. Bound huBACE1:Fc or muBACE1:Fc protein was eluted with 50 mM acetic acid, pH 3.6, at flow rate 20 ml per hour. 1 ml fractions of eluate were neutralized immediately with 0.5 ml 200 mM ammonium acetate, pH 6.5. The purity of final product was assessed by electrophoresis in 4-20% Tris-Glycine SDS-PAGE. The enzyme was stored at −80 C in small aliquots.

[2] = target: T2, beta-secretase activity (Homo sapiens, UniProt P56817); test: Whole cell assay for measuring the inhibition of beta-secretase activity; format: cell-based; settings: HEK293/APP751sw or HEK293/APP751wt cells, 37 C for 4 to 6 hours, sandwich ELISA of conditioned media; read-out: IC50 (Abeta, sAPPbeta-lowering effect)
T2 construct: endogenous in cells; host or cells: HEK293p (ATCC CRL-1573) stably expressing human APP751sw or APP751wt
Experimental: as §1
The routine whole cell assay for the measurement of inhibition of beta-secretase activity utilizes the human embryonic kidney cell line HEK293p (ATCC Accession No. CRL-1573) stably expressing a human APP751 cDNA containing the naturally occurring double mutation […] to Asn651Leu652, commonly called the Swedish mutation (noted HEK293/APP751sw) and shown to overproduce Abeta (Citron et al., 1992, Nature 360:672-674). Human embryonic kidney HEK293p cells stably expressing wild-type human APP751 cDNA (noted HEK293/APP751 wt) are also used to assess the inhibition of beta-secretase activity. In vitro Aβ reduction assays have been described in the literature (See: Dovey, et al., Journal of Neurochemistry, 76, 173-181 (2001); Seubert, et al., Nature, 361, 260 (1993); and Johnson-Wood, et al., Proc. Natl. Acad. Sci. USA, 94, 1550-1555 (1997))
Cells (HEK293/APP751sw or HEK293/APP751wt, at 3×10^4 cells/well, containing 200 microliters culture media, DMEM containing 10% FBS) are incubated at 37 C for 4 to 6 hours in the presence/absence of inhibitors (diluted in DMSO) at the desired concentration. At the end of the incubation, conditioned media are analyzed for beta-secretase activity, for example, by analysis of cleavage fragments, Abeta peptide and sAPPbeta. Abeta peptides are measured by a sandwich ELISA, using monoclonal 266 as a capture antibody and biotinylated 3D6 as reporting antibody. The sAPPbeta fragments are analyzed by a sandwich ELISA, using monoclonal 8E5 antibody as a capture antibody and rabbit polyclonal 192sw or 192wt as a reporting antibody. Note that sAPPbeta is the cleavage product of full length APP by BACE1. The concentration of sAPPbeta released in the conditioned media following the compound treatment corresponds to the activity of BACE1 under such conditions. The 10-point inhibition curve was plotted and fitted with the four-parameter logistic equation to obtain the EC50 and IC50 values for the Abeta, sAPPbeta-lowering effect. Data for selected compounds of the invention tested in this assay are contained in the following table.

T1 sequence (P56817 22-460): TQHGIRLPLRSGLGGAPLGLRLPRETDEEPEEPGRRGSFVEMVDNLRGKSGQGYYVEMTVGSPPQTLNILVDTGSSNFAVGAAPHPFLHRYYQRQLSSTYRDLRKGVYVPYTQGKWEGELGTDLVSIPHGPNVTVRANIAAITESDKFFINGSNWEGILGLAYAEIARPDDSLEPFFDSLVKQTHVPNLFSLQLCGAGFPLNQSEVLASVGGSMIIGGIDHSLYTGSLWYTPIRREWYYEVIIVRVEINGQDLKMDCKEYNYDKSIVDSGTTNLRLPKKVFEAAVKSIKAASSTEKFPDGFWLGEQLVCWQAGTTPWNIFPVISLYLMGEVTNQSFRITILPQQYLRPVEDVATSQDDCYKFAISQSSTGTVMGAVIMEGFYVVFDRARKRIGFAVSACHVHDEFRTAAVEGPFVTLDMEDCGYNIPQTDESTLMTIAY
T2 sequence (P56817 46-501): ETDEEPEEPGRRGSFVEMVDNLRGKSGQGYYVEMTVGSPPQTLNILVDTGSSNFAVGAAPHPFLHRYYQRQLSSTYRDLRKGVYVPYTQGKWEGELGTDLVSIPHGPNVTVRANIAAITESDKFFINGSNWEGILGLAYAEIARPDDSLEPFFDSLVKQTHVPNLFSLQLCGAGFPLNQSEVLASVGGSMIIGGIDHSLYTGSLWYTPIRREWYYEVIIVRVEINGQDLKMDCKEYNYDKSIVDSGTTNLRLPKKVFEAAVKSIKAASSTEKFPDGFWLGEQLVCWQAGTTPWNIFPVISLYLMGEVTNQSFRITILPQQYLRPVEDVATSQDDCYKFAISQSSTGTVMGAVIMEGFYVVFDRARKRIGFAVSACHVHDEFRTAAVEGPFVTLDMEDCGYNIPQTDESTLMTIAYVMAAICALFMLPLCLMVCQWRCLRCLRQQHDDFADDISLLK

Row | SMILES | IC50 [1] [nM] | IC50 [2] [nM]
1 | CCC(C)Nc1cc(C(=O)NC(Cc2ccccc2)C(O)C2CC(F)CN2)cc(N(C)S(C)(=O)=O)n1 [Example 7, N-[1-(S)-Benzyl-2-(R)-(4-(S)-fluoropyrrolidin-2-yl)-2-(R)-hydroxyethyl]-2-(S)-sec-butylamino-6-(methanesulfonyl-methylamino)-isonicotinamide bishydrochloride] | 3.9 | 13
2 | CCC(C)Nc1cc(C(=O)NC(Cc2ccccc2)C(O)C2CCCN2)cc(N(C)S(C)(=O)=O)n1 [Example 12, N-((1S,2R)-1-Benzyl-2-hydroxy-2-(R)-pyrrolidin-2-ylethyl)-2-(S)-sec-butylamino-6-(methanesulfonyl-methylamino)-isonicotinamide hydrochloride] | 1.8 | 15
3 | CC(=O)N[C@@H](Cc1cc(F)cc(F)c1)[C@H](O)[C@H]1C[C@@H](CC(=O)N2CCCCC2)CN1 [Example 33, N-{(1S,2R)-1-(3,5-Difluoro-benzyl)-2-hydroxy-2-[(2R,4S)-4-(2-oxo-2-piperidin-1-yl-ethyl)-pyrrolidin-2-yl]-ethyl}-acetamide hydrochloride] | 820 | 14300
4 | CC(=O)N[C@@H](Cc1cc(F)cc(F)c1)[C@H](O)[C@H]1C[C@@H](CC(=O)N2CCOCC2)CN1 [Example 35, N-{(1S,2R)-1-(3,5-Difluoro-benzyl)-2-hydroxy-2-[(2R,4S)-4-(2-morpholin-4-yl-2-oxo-ethyl)-pyrrolidin-2-yl]-ethyl}-acetamide hydrochloride] | 1400 | –
5 | CC(=O)N[C@@H](Cc1cc(F)cc(F)c1)[C@H](O)[C@H]1C[C@@H](CC(=O)N(C)C)CN1 [Example 37, 2-{(3S,5R)-5-[(1R,2S)-2-Acetylamino-3-(3,5-difluoro-phenyl)-1-hydroxy-propyl]-pyrrolidin-3-yl}-N,N-dimethyl-acetamide hydrochloride] | 5200 | –
6 | CC(=O)N[C@@H](Cc1cc(F)cc(F)c1)[C@H](O)[C@H]1C[C@@H](CC(=O)N2CCCCCC2)CN1 [Example 41, N-[(1S,2R)-2-[(2R,4S)-4-(2-Azepan-1-yl-2-oxo-ethyl)-pyrrolidin-2-yl]-1-(3,5-difluoro-benzyl)-2-hydroxy-ethyl]-acetamide hydrochloride] | 380 | 6070
7 | CC(=O)N[C@@H](Cc1cc(F)cc(F)c1)[C@H](O)[C@H]1C[C@@H](OCCC2CCCCC2)CN1 [Example 60, N-[(1S,2R)-2-[(2R,4R)-4-(2-Cyclohexyl-ethoxy)-pyrrolidin-2-yl]-1-(3,5-difluoro-benzyl)-2-hydroxy-ethyl]-acetamide hydrochloride] | 2300 | –
